As a reminder, the inhibition is the percentage by which the read-out fell short of the control.

This is an account of results in patent US8652533B2 (priority 2004, dated 2014).

For one test, the system named is SARS (Toronto-2 Strain). In words: microbe, parasite or virus in culture. The class given is cell-based, SARS coronavirus (SARSCoV). The note with it: for ACTIVITY: conc. 1 μM; for cytoprotective effect in the assay (in words): tested concentration (1 μM).
The test system of another test is SARSCoV, strain Urbani. The class given is cell-based, SARS coronavirus (SARSCoV).

Regarding `Oc1cc(O)c2c(c1)O[C@H](c1cc(O)c(O)c(O)c1)[C@@H](O)C2` [(+)-Gallocatechin], in the test on SARS (Toronto-2 Strain), the ACTIVITY result was “Inactive” and the “cytoprotective effect in the assay (in words)” value (shortened to “cytoprotective effect”) is recorded as “not”. On to `O=c1c(O)cc([C@H]2Oc3cc(O)cc(O)c3C[C@H]2O)cc2c([C@H]3Oc4cc(O)cc(O)c4C[C@H]3O)cc(O)c(O)c12` [free Theaflavin], for which the ACTIVITY result in the test on SARS (Toronto-2 Strain) is recorded as “Active”. Same read-out and setting: under Theaflavindigallate-A stands “Inactive”. On to catechin, for which the “direct virucidal effect (in words)” value in the test with SARSCoV, strain Urbani is listed as “very inhibitory to the virus”.

For `Oc1cc(O)c2c(c1)O[C@@H](c1cc(O)c(O)c(O)c1)[C@H](O)C2` [(−)-Gallocatechin], in the test on SARS (Toronto-2 Strain), the ACTIVITY entry is listed as “Inactive”. For the compound `O=C(O[C@@H]1Cc2c(O)cc(O)cc2O[C@@H]1c1ccc(O)c(O)c1)c1cc(O)c(O)c(O)c1` [(−)-Epicatechin Gallate], in the test with SARS (Toronto-2 Strain), the ACTIVITY result is “Active” and the “cytoprotective effect” value is reported as “had cytoprotective effect”. With (−)-Catechin, the ACTIVITY entry in the test with SARS (Toronto-2 Strain) was “Inactive”. As for `Oc1cc(O)c2c(c1)O[C@H](c1cc(O)c(O)c(O)c1)[C@H](O)C2` [(−)-Epigallocatechin], in the test on SARS (Toronto-2 Strain), the ACTIVITY entry is “Inactive” and the “cytoprotective effect” value is listed as “not”. On the same counts, the results for (−)-Gallocatechin Gallate are “Active” and “had cytoprotective effect”. As to `Oc1cc(O)c2c(c1)O[C@@H](c1ccc(O)c(O)c1)[C@@H](O)C2` [(+)-Epicatechin], the ACTIVITY entry with SARS (Toronto-2 Strain) is recorded as “Inactive”. Regarding (−)-Epigallocatechin Gallate, in the test with SARS (Toronto-2 Strain), the ACTIVITY result is on record as “Active” and the “cytoprotective effect” value is “had cytoprotective effect”. In the same order, the values of `Oc1cc(O)c2c(c1)O[C@H](c1ccc(O)c(O)c1)[C@H](O)C2` [(−)-Epicatechin] are “Inactive” and “not”. In the same order, the values of `Oc1cc(O)c2c(c1)O[C@H](c1ccc(O)c(O)c1)[C@@H](O)C2` [(+)-Catechin] are “Inactive” and “not”. Consider `O=C(O[C@@H]1Cc2c(O)cc(O)cc2O[C@@H]1c1cc(O)c(=O)c2c(O)c(O)cc([C@H]3Oc4cc(O)cc(O)c4C[C@H]3OC(=O)c3cc(O)c(O)c(O)c3)c2c1)c1cc(O)c(O)c(O)c1` [Theaflavindigallate], for which the inhibition at 1 µM in the test with SARS (Toronto-2 Strain) (Severe acute respiratory syndrome coronavirus, Vero 76, 72 h, read-out: % CPE (INHIBITION)) turned out to be 100%. In addition, the ACTIVITY entry in the test on SARS (Toronto-2 Strain) is recorded as “Active”. In the case of `O=C(O[C@@H]1Cc2c(O)cc(O)cc2O[C@H]1c1ccc(O)c(O)c1)c1cc(O)c(O)c(O)c1` [(−)-Catechin Gallate], the ACTIVITY result in the test with SARS (Toronto-2 Strain) is given as “Active”.

Take Theaflavindigallate-B: the ACTIVITY entry in the test with SARS (Toronto-2 Strain) is “Inactive”.
